# Test results reported in patent US8106055B2, “Substituted amide compounds” (Gruenenthal GmbH, priority 2007, dated 2012).
# Where two headings read alike, the source gives them in different places.
# Tests used:
# [1] = target: T1, bradykinin 1 receptor (B1R) of the rat (Rattus norvegicus, UniProt P97583); assay: Functional investigation on the rat bradykinin 1 receptor (B1R), Ca2+ FLIPR assay in CHO K1 rB1R cells; type: cell-based; details: test substance 10 μM; for inhibition at 10 µM: CHO-K1, B1R antagonism rat, read-out: B1R Ant. r [10 μM] % Inhibition; for B1R Ant. r [10 μM] % Inhibition: B1R antagonism rat
# T1 construct: expressed in transfected cells; host or cells: CHO K1 cells
# T1 sequence (P97583 1-337): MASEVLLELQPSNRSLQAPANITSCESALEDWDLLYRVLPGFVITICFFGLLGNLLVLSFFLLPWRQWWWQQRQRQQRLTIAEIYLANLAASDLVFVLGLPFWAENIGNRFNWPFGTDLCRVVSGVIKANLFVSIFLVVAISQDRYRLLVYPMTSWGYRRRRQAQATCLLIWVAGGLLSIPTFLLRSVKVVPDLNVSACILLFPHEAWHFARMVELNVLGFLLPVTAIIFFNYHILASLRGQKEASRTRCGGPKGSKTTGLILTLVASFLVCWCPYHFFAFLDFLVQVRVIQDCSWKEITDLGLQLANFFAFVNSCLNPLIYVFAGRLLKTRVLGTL
# How it was run: (§1)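 Stably transfected CHO K1 cells loaded with Fluo-4; FLIPR Ca2+ fluorescence peak (ex 488/em 540 nm). Compound added first (agonism vs Lys-Des-Arg9-bradykinin ≥50 nM human, Des-Arg9-bradykinin 10 μM rat), then after 10-20 min agonist at EC80; antagonism as % inhibition, IC50 from concentration series, n=2-3, N≥2.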
# human μ opiate receptor = target: T2, human μ opiate receptor (Homo sapiens, UniProt P35372); assay: Affinity for the human μ opiate receptor ([3H]-naloxone displacement, CHO-K1 receptor membrane preparation, SPA); type: binding; details: Table 3, to be read in the same way as Table 1, test concentration 1 μM; for inhibition at 1 µM: 1.5 h, read-out: μ
# T2 construct: purchased PerkinElmer Life Sciences, Zaventem, Belgium RB-HOM; host or cells: CHO-K1 cells (membrane preparation)
# T2 sequence (P35372 whole entry): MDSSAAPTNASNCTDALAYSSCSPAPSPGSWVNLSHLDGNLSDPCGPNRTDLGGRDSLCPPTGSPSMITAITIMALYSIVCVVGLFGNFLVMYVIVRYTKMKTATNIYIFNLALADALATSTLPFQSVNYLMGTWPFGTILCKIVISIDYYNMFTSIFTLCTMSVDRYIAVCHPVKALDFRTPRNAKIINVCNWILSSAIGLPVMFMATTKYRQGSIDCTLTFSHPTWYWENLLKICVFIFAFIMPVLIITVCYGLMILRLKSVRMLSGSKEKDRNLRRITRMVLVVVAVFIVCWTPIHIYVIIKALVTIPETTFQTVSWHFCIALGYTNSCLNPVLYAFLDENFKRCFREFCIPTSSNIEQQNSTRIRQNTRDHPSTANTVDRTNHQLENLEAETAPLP
# How it was run: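 Readout is percent displacement of [3H]-naloxone (1 nmol/l) from human μ receptor in CHO-K1 membranes, measured at 1 μmol/l compound. Incubation runs 90 minutes at room temperature with WGA-SPA beads in Tris-HCl/BSA buffer; non-specific binding is defined with 100 μmol/l naloxone.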
# [2] = target: T3, human bradykinin 1 receptor (B1R) (Homo sapiens, UniProt P46663); assay: Functional investigation on the human bradykinin 1 receptor (B1R), Ca2+ FLIPR assay in CHO K1 hB1R cells; type: cell-based; details: test substance 10 μM; for inhibition at 10 µM: CHO-K1, B1R antagonism human, read-out: B1R Ant. h [10 μM] % Inhibition; for B1R Ant. h [10 μM] % Inhibition: B1R antagonism human
# T3 construct: expressed in transfected cells; host or cells: CHO K1 cells
# T3 sequence (P46663 1-353): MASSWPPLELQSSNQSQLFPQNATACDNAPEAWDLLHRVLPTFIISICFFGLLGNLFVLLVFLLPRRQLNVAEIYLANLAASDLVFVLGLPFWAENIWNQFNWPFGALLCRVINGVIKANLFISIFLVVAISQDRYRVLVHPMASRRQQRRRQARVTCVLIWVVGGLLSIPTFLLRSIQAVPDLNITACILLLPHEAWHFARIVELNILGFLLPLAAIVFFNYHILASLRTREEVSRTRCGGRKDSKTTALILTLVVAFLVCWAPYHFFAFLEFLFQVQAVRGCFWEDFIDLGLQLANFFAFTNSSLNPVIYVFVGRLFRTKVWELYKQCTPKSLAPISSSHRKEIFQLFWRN
# How it was run: as §1
# [3] = % inhibition compared with the maximum achievable inhibition
Structure (SMILES),"inhibition at 10 µM ([1]; Ca2+ FLIPR, CHO K1 rB1R cells)",inhibition at 1 µM (human μ opiate receptor),"inhibition at 10 µM ([2]; Ca2+ FLIPR, CHO K1 hB1R cells)","B1R Ant. r [10 μM] % Inhibition ([1]; Ca2+ FLIPR, CHO K1 rB1R cells)",μ (human μ opiate receptor),"B1R Ant. h [10 μM] % Inhibition ([2]; Ca2+ FLIPR, CHO K1 hB1R cells)","inhibition at 10 µM [1, 3]","inhibition at 10 µM [2, 3]"
"COc1cc(C)c(S(=O)(=O)N(C)CCOCC(=O)NCC2CCC(C(CCc3ccccc3)N3CCOCC3)CC2)c(C)c1 (stereo not drawn) [Example 719, 2-(2-(4-methoxy-N,2,6-trimethylphenylsulfonamido)ethoxy)-N-((4-(1-morpholino-3-phenylpropyl)cyclohexyl)methyl)acetamide]",101%,6%,103%,–,–,–,–,–
"COc1cc(C)c(S(=O)(=O)N(C)CCOCC(=O)NCC2CCC(C(c3ccccc3)N3CCCC3)CC2)c(C)c1 (stereo not drawn) [Example 642, 2-(2-(4-methoxy-N,2,6-trimethylphenylsulfonamido)ethoxy)-N-((4-(phenyl(pyrrolidin-1-yl)methyl)cyclohexyl)methyl)acetamide]",105%,54%,105%,–,–,–,–,–
"O=C(COCC1CCCN(S(=O)(=O)c2c(Cl)cc(Cl)cc2Cl)C1)NC1CCC(C(CCc2ccccc2)N2CCCCC2)CC1 (stereo not drawn) [Example 679, N-(4-(3-phenyl-1-(piperidin-1-yl)propyl)cyclohexyl)-2-((1-(2,4,6-trichlorophenylsulfonyl)piperidin-3-yl)methoxy)acetamide]",34%,51%,39%,–,–,–,–,–
"O=C(COCC1CCCN1S(=O)(=O)c1c(Cl)cc(Cl)cc1Cl)NCC1CCC(C(c2ccccc2)N2CCCC2)CC1 (stereo not drawn) [Example 651, N-((4-(phenyl(pyrrolidin-1-yl)methyl)cyclohexyl)methyl)-2-((1-(2,4,6-trichlorophenylsulfonyl)pyrrolidin-2-yl)methoxy)acetamide]",105%,83%,103%,–,–,–,–,–
"CN(CCOCC(=O)NC1CCC(C(CCc2ccccc2)N2CCCCC2)CC1)S(=O)(=O)c1c(Cl)cc(C(F)(F)F)cc1Cl (stereo not drawn) [Example 671, 2-(2-(2,6-dichloro-N-methyl-4-(trifluoromethyl)phenylsulfonamido)ethoxy)-N-(4-(3-phenyl-1-(piperidin-1-yl)propyl)cyclohexyl)acetamide]",4%,9%,43%,–,–,–,–,–
"O=C(COC1CCN(S(=O)(=O)c2c(Cl)cc(Cl)cc2Cl)C1)NC1CCC(C(c2ccccc2)N2CCOCC2)CC1 (stereo not drawn) [Example 685, N-(4-(morpholin(phenyl)methyl)cyclohexyl)-2-(1-(2,4,6-trichlorophenylsulfonyl)pyrrolidin-3-yloxy)acetamide]",–,–,–,18%,3 % inhibition,13%,–,–
"COc1cc(C)c(S(=O)(=O)N2CCCC(COCC(=O)NC3CCC(C(c4ccccc4)N4CCCC4)CC3)C2)c(C)c1 (stereo not drawn) [Example 654, 2-((1-(4-methoxy-2,6-dimethylphenylsulfonyl)piperidin-3-yl)methoxy)-N-(4-(phenyl(pyrrolidin-1-yl)methyl)cyclohexyl)acetamide]",46%,53%,80%,–,–,–,–,–
"O=C(COC1CCN(S(=O)(=O)c2c(Cl)cc(Cl)cc2Cl)C1)NC1CCC(C(c2ccccc2)N2CCCC2)CC1 (stereo not drawn) [Example 635, N-(4-(phenyl(pyrrolidin-1-yl)methyl)cyclohexyl)-2-(1-(2,4,6-trichlorophenylsulfonyl)pyrrolidin-3-yloxy)acetamide]",22%,78%,67%,–,–,–,–,–
"COc1cc(C)c(S(=O)(=O)N2CCCC2COCC(=O)NC2CCC(C(CCc3ccccc3)N3CCOCC3)CC2)c(C)c1 (stereo not drawn) [Example 676, 2-((1-(4-methoxy-2,6-dimethylphenylsulfonyl)pyrrolidin-2-yl)methoxy)-N-(4-(1-morpholino-3-phenylpropyl)cyclohexyl)acetamide]",106%,10%,93%,–,–,–,–,–
"CN(CCOCC(=O)NCC1CCC(C(c2ccccc2)N2CCCC2)CC1)S(=O)(=O)c1c(Cl)cccc1Cl (stereo not drawn) [Example 643, 2-(2-(2,6-dichloro-N-methylphenylsulfonamido)ethoxy)-N-((4-(phenyl(pyrrolidin-1-yl)methyl)cyclohexyl)methyl)acetamide]",62%,76%,102%,–,–,–,–,–
"CN(CCOCC(=O)NC1CCC(C(c2ccccc2)N2CCCC2)CC1)S(=O)(=O)c1c(Cl)cc(Cl)cc1Cl (stereo not drawn) [Example 625, N-(4-(phenyl(pyrrolidin-1-yl)methyl)cyclohexyl)-2-(2-(2,4,6-trichloro-N-methylphenylsulfonamido)ethoxy)acetamide]",–,72%,–,57%,–,100%,–,–
"O=C(COCC1CCCN(S(=O)(=O)c2c(Cl)cc(Cl)cc2Cl)C1)NCC1CCC(C(c2ccccc2)N2CCCC2)CC1 (stereo not drawn) [Example 659, N-((4-(phenyl(pyrrolidin-1-yl)methyl)cyclohexyl)methyl)-2-((1-(2,4,6-trichlorophenylsulfonyl)piperidin-3-yl)methoxy)acetamide]",100%,79%,50%,–,–,–,–,–
"CN(CCOCC(=O)NCC1CCC(C(CCc2ccccc2)N2CCCC2)CC1)S(=O)(=O)c1c(Cl)cc(C(F)(F)F)cc1Cl (stereo not drawn) [Example 746, 2-(2-(2,6-dichloro-N-methyl-4-(trifluoromethyl)phenylsulfonamido)ethoxy)-N-((4-(3-phenyl-1-(pyrrolidin-1-yl)propyl)cyclohexyl)methyl)acetamide]",51%,8%,98%,–,–,–,–,–
"CN1CCN(C(c2cccc(F)c2)C2CCN(C(=O)COCC3CCc4ccccc4N3S(=O)(=O)c3ccc(Cl)c(Cl)c3)CC2)CC1 (stereo not drawn) [Example 809, 2-((1-(3,4-dichlorophenylsulfonyl)-1,2,3,4-tetrahydroquinolin-2-yl)methoxy)-1-(4-((3-fluorophenyl)(4-methylpiperazin-1-yl)methyl)piperidin-1-yl)ethanone]",–,6%,–,–,–,–,87%,109%
"O=C(COCC1CCCCN1S(=O)(=O)c1c(Cl)cc(Cl)cc1Cl)NCC1CCC(C(CCc2ccccc2)N2CCCC2)CC1 (stereo not drawn) [Example 755, N-((4-(3-phenyl-1-(pyrrolidin-1-yl)propyl)cyclohexyl)methyl)-2-((1-(2,4,6-trichlorophenylsulfonyl)piperidin-2-yl)methoxy)acetamide]",102%,62%,103%,–,–,–,–,–
"CN(CCOCC(=O)NCC1CCC(C(c2ccccc2)N2CCCC2)CC1)S(=O)(=O)c1c(Cl)cc(C(F)(F)F)cc1Cl (stereo not drawn) [Example 646, 2-(2-(2,6-dichloro-N-methyl-4-(trifluoromethyl)phenylsulfonamido)ethoxy)-N-((4-(phenyl(pyrrolidin-1-yl)methyl)cyclohexyl)methyl)acetamide]",15%,49%,60%,–,–,–,–,–
"O=C(COC1CCN(S(=O)(=O)c2c(Cl)cc(Cl)cc2Cl)C1)NCC1CCC(C(c2ccccc2)N2CCOCC2)CC1 (stereo not drawn) [Example 743, N-((4-(morpholino(phenyl)methyl)cyclohexyl)methyl)-2-(1-(2,4,6-trichlorophenylsulfonyl)pyrrolidin-3-yloxy)acetamide]",10%,8%,-3%,–,–,–,–,–
